Data from US8535672B2, “Broad-spectrum in-vivo effective superantigen toxin antagonists based on the interaction between CD28 and the superantigen and uses thereof” (Yissum Research Development of the Hebrew University of …, priority 2003, dated 2013).
Entries after “also recorded” stand apart in the source; their conditions may differ. Non-standard residues stand in square brackets, D forms with d. Residues, ends and D or L forms follow the SMILES beside them. No end group written: not given here.

Experiments:
PD-1 = biological target: T1, PD-1 (Homo sapiens, UniProt Q15116); assay type: binding
T1 construct: comprise the extracellular 37-162, 19-152, 21-141, 24-167 and 20-239 amino acid, respectively, of the mature human ligands domain; purchased R&D Systems; host or cells: mouse myeloma NS0 cells

[1] = tested on: IL2 and IFN-γ mRNA induced by SEB in human PBMC; assay type: cell-based
[2] = tested on: IL2 and IFN-γ mRNA in human PBMC; assay type: cell-based
[3] = tested on: IL10 and IL4 induced by SEB in human PBMC; assay type: cell-based
[4] = tested on: IL2 and IFN-γ mRNA induced by αCD28, αCD3, sB7-2 in human PBMC; assay type: cell-based
soluble CD28 (sCD28) = biological target: T2, soluble CD28 (sCD28) (Homo sapiens, UniProt P10747); assay type: binding
T2 construct: comprise the extracellular 37-162, 19-152, 21-141, 24-167 and 20-239 amino acid, respectively, of the mature human ligands domain; purchased R&D Systems 342-CD; host or cells: mouse myeloma NS0 cells

SEB [5] = biological target: T3, SEB (Staphylococcus aureus, UniProt P01552); parameters: species or system BALB/c mice; details: mouse
[6] = mouse, in vivo
[7] = tested on: IL2 and IFN-γ mRNA induced by TSST-1 in human PBMC; assay type: cell-based
IL10 in human PBMC = assay type: cell-based
sCD28 [8] = biological target: T4, sCD28 (Homo sapiens, UniProt P10747); assay type: binding
T4 construct: comprise the extracellular 37-162, 19-152, 21-141, 24-167 and 20-239 amino acid, respectively, of the mature human ligands domain; purchased R&D Systems 342-CD; host or cells: mouse myeloma NS0 cells

sCD28 [9] = biological target: T4, sCD28; assay: ELISA: binding of anti-CD28 to immobilized sCD28 in presence of antagonist peptide; details: 1,000-fold diluted anti-CD28, p14A from 0.1 μg per ml
Description: An amount of 250 ng sCD28 was immobilized on an ELISA microtiter plate and binding of anti-CD28 at the two indicated dilutions (corresponding to 250 and 125 ng/ml, respectively) was measured by use of a secondary antibody coupled to alkaline phosphatase, recording absorbency at 450 nm. p14A was either absent (Control) or present at the indicated concentrations. Abbreviations: bin. (binding), Un. (units), cont. (control), ml (milliliter), μg (microgram), α (anti).
Yet another assay was devised to show a direct interaction between antagonist peptide and sCD28. The inventors developed an enzyme-linked immune sorbent assay (ELISA) in which sCD28 is immobilized in the wells of a microtiter ELISA plate and binding of anti-CD28 is measured by use of a secondary antibody coupled to alkaline phosphatase. It is seen in FIG. 16 that binding of 1,000-fold diluted anti-CD28 to the plate was inhibited by p14A even at a concentration of only 0.1 μg per ml. […] Thus, antagonist peptide p14A is a powerful inhibitor of the interaction between anti-CD28 and sCD28.

sCD28/sB7-2 = biological target: T5, sCD28/sB7-2 (Homo sapiens, UniProt P10747); assay type: binding
T5 construct: comprise the extracellular 37-162, 19-152, 21-141, 24-167 and 20-239 amino acid, respectively, of the mature human ligands domain; purchased R&D Systems 342-CD (sCD28); host or cells: mouse myeloma NS0 cells

p14A = assay type: binding
SEB [10] = biological target: T3, SEB
SEB [11] = biological target: T3, SEB; remark: listed apart in the source

T1 sequence (Q15116 24-167): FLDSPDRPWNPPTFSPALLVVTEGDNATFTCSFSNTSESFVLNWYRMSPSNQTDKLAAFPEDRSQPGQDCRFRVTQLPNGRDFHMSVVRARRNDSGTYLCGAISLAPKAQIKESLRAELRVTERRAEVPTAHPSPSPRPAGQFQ

CC(C)C[C@H](NC(=O)[C@H](CCC(=O)O)NC(=O)[C@H](CCC(N)=O)NC(=O)[C@@H](NC(=O)[C@@H](NC(=O)[C@H](C)NC(=O)[C@H](CCCCN)NC(=O)[C@H](CCCCN)NC(=O)[C@H](CCCCN)NC(=O)[C@H](CC(N)=O)NC(=O)[C@H](Cc1ccc(O)cc1)NC(=O)[C@@H](N)CS)[C@@H](C)O)C(C)C)C(=O)N[C@@H](CC(=O)O)C(=O)N[C@@H](CS)C(=O)O [p12C] (H-CYNKKKATVQELDC-OH)
binding of PD-1 to immobilized peptide (PD-1): failed to bind significantly
antagonism of SEB-mediated induction of IL2 and IFN-γ mRNA [1]: as active as p14A

AAAAAAAAAAMYPPPY [control peptide containing another motif in the sCD28 molecule, reference compound]
antagonism of SEB-mediated induction of IL2 and IFN-γ mRNA [1]: did not show antagonist activity
induction of Th1 cytokine mRNA by the substance alone (agonist activity) [2]: Neither pTA nor AAAAAAAAAAMYPPPY (SEQ ID NO: 7) alone were active as inducer

AAAAAAAHVKGKHLCP [pTA]
antagonism of SEB-mediated induction of IL2 and IFN-γ mRNA [1]: blocked
effect on SEB-mediated induction of IL10 / IL4 (Th2 response) [3]: left the induction of IL10 and IL4 intact
effect on induction of IL2/IFN-γ mRNA by αCD28 alone [4]: inhibited
induction of Th1 cytokine mRNA by the substance alone (agonist activity) [2]: Neither pTA nor AAAAAAAAAAMYPPPY (SEQ ID NO: 7) alone were active as inducer

APMYHKHRLEKH (Synthetic peptide pe6)
antagonism of SEB-mediated induction of IL2 and IFN-γ mRNA [1]: inhibited

C-EKAKYTQLVKDN-C (CEKAKYTQLVKDNC; terminal cysteines; Sequence of artificial peptide p12Csc) [randomly scrambled p12C, reference compound]
binding to CD28 (SPR) (soluble CD28 (sCD28)): failed to bind CD28

CHGHLVPKK (Synthetic scrambled control peptide p1TAsc) [scrambled form of p1TA, reference compound]
antagonism of SEB-mediated induction of IL2 and IFN-γ mRNA [1]: lacked antagonist activity
protection of mice from lethal SEB challenge (SEB [5]; in vivo): failed to provide protection

FHKHKNPGSPII [pc3]
antagonism of SEB-mediated induction of IL2 and IFN-γ mRNA [1]: inhibited
effect on SEB-mediated induction of IL10 / IL4 (Th2 response) [3]: failed to inhibit induction of IL10
molar excess (ratio) over SEB at which protective in vivo (SEB [5]): about equimolar ratio
mice surviving SEB challenge / group (SEB [5]; in vivo): 7/10
induction of Th1 cytokine mRNA by the substance alone (agonist activity) [2]: lacked superantigen agonist activity
toxicity of peptide alone [6]: lacked detectable toxicity

GEINGSAN (Synthetic peptide p2TC)
antagonism of SEB-mediated induction of IL2 and IFN-γ mRNA [1]: inhibited
protection of mice from lethal SEB challenge (SEB [5]; in vivo): protected mice from lethal challenge

HVKGKHLCP (Synthetic peptide p1TA)
antagonism of SEB-mediated induction of IL2 and IFN-γ mRNA [1]: antagonized
inhibition of induction of IL2 and IFN-γ mRNA by TSST-1 [7]: inhibited
molar excess (ratio) over SEB at which protective in vivo (SEB [5]): 3.6 fold
mice surviving SEB challenge / group (SEB [5]; in vivo): 7/10
concentration without detectable toxicity, relative to that needed for protection [6]: 25 fold
toxicity of peptide alone [6]: lacked detectable toxicity

IHKPHHHRTPLW (Synthetic peptide pf8)
antagonism of SEB-mediated induction of IL2 and IFN-γ mRNA [1]: inhibited

PAVVLASS (Synthetic peptide p2TB)
antagonism of SEB-mediated induction of IL2 and IFN-γ mRNA [1]: inhibited
effect on SEB-mediated induction of IL10 / IL4 (Th2 response) [3]: left induction of IL10 intact
molar excess (ratio) over SEB at which protective in vivo (SEB [5]): 2 fold
protection of mice from lethal SEB challenge (SEB [5]; in vivo): protected mice from lethal challenge

SHFTHNRHGHST (Synthetic Peptide pe12)
antagonism of SEB-mediated induction of IL2 and IFN-γ mRNA [1]: strongly inhibited
effect on SEB-mediated induction of IL10 / IL4 (Th2 response) [3]: failed to inhibit induction of IL10
molar excess (ratio) over SEB at which protective in vivo (SEB [5]): about equimolar ratio
mice surviving SEB challenge / group (SEB [5]; in vivo): 8/10
induction of Th1 cytokine mRNA by the substance alone (agonist activity) [2]: lacked superantigen agonist activity
toxicity of peptide alone [6]: lacked detectable toxicity

SPMLVAYD [p2TA]
antagonism of SEB-mediated induction of IL2 and IFN-γ mRNA [1]: antagonized
inhibition of induction of IL2 and IFN-γ mRNA by TSST-1 [7]: inhibited
molar excess (ratio) over SEB at which protective in vivo (SEB [5]): 0.8 fold
mice surviving SEB challenge / group (SEB [5]; in vivo): 8/10
concentration without detectable toxicity, relative to that needed for protection [6]: 125 fold
toxicity of peptide alone [6]: lacked detectable toxicity

WHAHPHKKPVVA [pd7]
antagonism of SEB-mediated induction of IL2 and IFN-γ mRNA [1]: inhibited
effect on SEB-mediated induction of IL10 / IL4 (Th2 response) [3]: failed to inhibit induction of IL10
mice surviving SEB challenge / group (SEB [5]; in vivo): 4/10
induction of Th1 cytokine mRNA by the substance alone (agonist activity) [2]: lacked superantigen agonist activity
toxicity of peptide alone [6]: lacked detectable toxicity

YESQLCCQL (Synthetic peptide p1TC)
antagonism of SEB-mediated induction of IL2 and IFN-γ mRNA [1]: inhibited
protection of mice from lethal SEB challenge (SEB [5]; in vivo): protected mice from lethal challenge

YVIDPEPCP (Synthetic peptide p1TB)
antagonism of SEB-mediated induction of IL2 and IFN-γ mRNA [1]: inhibited
effect on SEB-mediated induction of IL10 / IL4 (Th2 response) [3]: left induction of IL10 intact
molar excess (ratio) over SEB at which protective in vivo (SEB [5]): 3.6 fold
protection of mice from lethal SEB challenge (SEB [5]; in vivo): protected mice from lethal challenge

daV Q Y N K K K A T V Q E L Dda ([dA]VQYNKKKATVQELD[dA]) [p14A]
binding to CD28 (SPR) (soluble CD28 (sCD28)): bind directly to CD28
antagonism of SEB-mediated induction of IL2 and IFN-γ mRNA [1]: blocked
effect on SEB-mediated induction of IL10 / IL4 (Th2 response) [3]: left induction of the Th2-type cytokines IL-10 and IL-4 intact
effect on induction of IFN-γ mRNA by anti-CD3 alone [4]: did not inhibit
effect on induction of IFN-γ mRNA by anti-CD3 with sB7-2 [4]: abrogated
effect on induction of IFN-γ mRNA by sB7-2 alone [4]: shifted the induction by sB7-2 alone to earlier times; also recorded: stimulated induction significantly
effect on induction of IL2/IFN-γ mRNA by αCD28 alone [4]: blocked
effect on induction of IL2/IFN-γ mRNA by αCD28 and αCD3 combined [4]: eliminated virtually in full
effect on induction of IL10 by αCD28/αCD3 (IL10 in human PBMC): resistant
effect on induction of IL-10 by sB7-2/anti-CD3 (IL10 in human PBMC): largely resistant
molar excess (ratio) over SEB at which protective in vivo (SEB [5]): 12 fold
protection from lethal SEB challenge (SEB [5]; in vivo): 70%
effect on plasmon resonance signal for binding of anti-CD28 to sCD28 (sCD28 [8]): reduced
effect on binding of anti-CD28 to sCD28 (ELISA) (sCD28 [9]): inhibited
effect on plasmon resonance signal for binding of sCD28 to sB7-2 (sCD28/sB7-2): enhanced significantly

pSEB(41-61): a peptide that lacks antagonist activity (IDQFLYFDLIYSIKDTKLGNY; UniProt P01552 68-88, looked up, fragment) [reference compound]
effect on plasmon resonance signal for binding of sCD28 to sB7-2 (sCD28/sB7-2): only slightly

sCD28: recombinant soluble CD28: extracellular domain of human CD28 fused to His6-tagged Fc of human IgG (R&D Systems 342-CD)
antagonism of SEB-mediated induction of IL2 and IFN-γ mRNA [1]: dose-dependent manner
inhibition of SEB induction of IFN-γ mRNA [1]: about twenty fold
inhibition of SEB induction of IL-2 mRNA [1]: 3.5 fold
effect on induction of IL2/IFN-γ mRNA by αCD28 alone [4]: inhibited
inhibition of anti-p14A Ab binding to p14A (ELISA) (p14A): over 90%
induction of Th1 cytokine mRNA by the substance alone (agonist activity) [2]: did not induce IFN-γ mRNA
inhibition of binding of anti-SEB Ab to SEB (SEB [10]): 84%
reduction of anti-SEB binding to SEB (SEB [10]): about 5 fold
competition of anti-SEB Ab binding to SEB (ELISA) (SEB [11]): about 75%
